From patent US9102591B2, “Benzamides” (H. Lundbeck A/S, priority 2012, dated 2015)

Each molecule was assayed against P2X7 receptor (Homo sapiens (Human), UniProt Q99572) (assay: P2X7 FLIPR assay (BzATP-stimulated calcium fluorescence, antagonist IC50)).
Type: cell-based
Procedure, shortened: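 Cells expressing P2X7 receptor (human, rat or mouse), plated 24 hours earlier in low-serum medium, loaded with Fluo-4 NW dye (30 min 37° C, 30 min room temperature).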

P2X7 receptor, sequence (Q99572 whole entry): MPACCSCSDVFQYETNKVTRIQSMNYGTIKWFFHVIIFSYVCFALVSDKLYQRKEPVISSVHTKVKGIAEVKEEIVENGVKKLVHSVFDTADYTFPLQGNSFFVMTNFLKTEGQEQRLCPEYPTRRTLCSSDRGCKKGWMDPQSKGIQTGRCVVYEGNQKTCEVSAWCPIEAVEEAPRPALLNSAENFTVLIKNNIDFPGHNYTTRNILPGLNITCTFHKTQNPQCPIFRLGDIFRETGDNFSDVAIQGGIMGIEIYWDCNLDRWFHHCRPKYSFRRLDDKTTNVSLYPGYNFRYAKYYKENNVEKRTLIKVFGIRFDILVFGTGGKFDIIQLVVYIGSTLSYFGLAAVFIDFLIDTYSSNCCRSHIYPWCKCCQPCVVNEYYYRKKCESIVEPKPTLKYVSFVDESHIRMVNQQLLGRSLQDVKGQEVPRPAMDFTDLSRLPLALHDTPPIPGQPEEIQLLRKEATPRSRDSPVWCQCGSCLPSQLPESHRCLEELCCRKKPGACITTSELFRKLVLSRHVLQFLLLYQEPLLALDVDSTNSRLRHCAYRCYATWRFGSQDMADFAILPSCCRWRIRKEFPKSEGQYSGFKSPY

| SMILES | IC50 |
| --- | --- |
| O=C(NCC(c1ccc(Cl)cc1)C1CCOCC1)c1c(F)cccc1Cl (stereo not drawn) [2-chloro-N-[2-(4-chlorophenyl)-2-tetrahydropyran-4-yl-ethyl]-6-fluoro-benzamide] | 30 nM |
| O=C(NCC(c1ccc(Cl)cc1)C1CCOCC1)c1ccccc1Cl (stereo not drawn) [2-chloro-N-[2-(4-chlorophenyl)-2-tetrahydropyran-4-yl-ethyl]benzamide] | 14 nM |
| O=C(NCC(c1ccncc1)c1cnc(C(F)(F)F)nc1)c1ccccc1Cl (stereo not drawn) [2-chloro-N-[2-(4-pyridyl)-2-[2-(trifluoromethyl)pyrimidin-5-yl]ethyl]benzamide] | 30 nM |
| O=C(NCC(c1ccncc1)c1ccc(C(F)(F)F)nc1)c1ccccc1Cl (stereo not drawn) [2-chloro-N-[2-(4-pyridyl)-2-[6-(trifluoromethyl)-3-pyridyl]ethyl]benzamide] | 11 nM |
| O=C(NCC(CC1(C(F)(F)F)CC1)c1ccc(C2CC2)nc1)c1ccccc1Cl (stereo not drawn) [2-chloro-N-[2-(6-cyclopropyl-3-pyridyl)-3-[1-(trifluoromethyl)cyclopropyl]propyl]benzamide] | 94 nM |
| O=C(NCC(CC1(C(F)(F)F)CC1)c1ccc(C(F)(F)F)nc1)c1ccccc1Cl (stereo not drawn) [2-chloro-N-[3-[1-(trifluoromethyl)cyclopropyl]-2-[6-(trifluo] [2-chloro-N-[3-[1-(trifluoromethyl)cyclopropyl]-2-[6-(trifluoromethyl)-3-pyridyl]propyl]benzamide] | 2.1 nM |
| Cc1ncc(C(CNC(=O)c2ccccc2Cl)CC2CC2)cn1 (stereo not drawn) [2-chloro-N-[3-cyclopropyl-2-(2-methylpyrimidin-5-yl)propyl]benzamide] | 1200 nM |
| O=C(NCC(CC1CC1)c1ccc(C(F)(F)F)nc1)c1ccccc1Cl (stereo not drawn) [2-chloro-N-[3-cyclopropyl-2-[6-(trifluoromethyl)-3-pyridyl]propyl]benzamide] | 3.4 nM |
| CC(CNC(=O)c1cccc(F)c1Cl)(CC1CC1)c1cnc(C(F)(F)F)nc1 (stereo not drawn) [2-chloro-N-[3-cyclopropyl-2-methyl-2-[2-(trifluoromethyl)pyr] [2-chloro-N-[3-cyclopropyl-2-methyl-2-[2-(trifluoromethyl)pyrimidin-5-yl]propyl]-3-fluoro-benzamide] | 16 nM |
| CC(CNC(=O)c1ccccc1Cl)(CC1CC1)c1cnc(C(F)(F)F)nc1 (stereo not drawn) [2-chloro-N-[3-cyclopropyl-2-methyl-2-[2-(trifluoromethyl)pyr] [2-chloro-N-[3-cyclopropyl-2-methyl-2-[2-(trifluoromethyl)pyrimidin-5-yl]propyl]benzamide] | 21 nM |
| Cc1ncc(C2(CNC(=O)c3ccccc3Cl)CCC(F)(F)CC2)cn1 [2-chloro-N-[[4,4-difluoro-1-(2-methylpyrimidin-5-yl)cyclohexyl]methyl]benzamide] | 120 nM |
| O=C(NCC1(c2ccc(F)nc2)CCC(F)(F)CC1)c1cc(C(F)(F)F)ccc1Cl [2-chloro-N-[[4,4-difluoro-1-(6-fluoro-3-pyridyl)cyclohexyl]methyl]-5-(trifluoromethyl)benzamide] | 1.2 nM |
| Cc1ccc(Cl)c(C(=O)NCC2(c3ccc(F)nc3)CCC(F)(F)CC2)c1 [2-chloro-N-[[4,4-difluoro-1-(6-fluoro-3-pyridyl)cyclohexyl]methyl]-5-methyl-benzamide] | 0.76 nM |
| O=C(NCC1(c2ccc(F)nc2)CCC(F)(F)CC1)c1c(F)cccc1Cl [2-chloro-N-[[4,4-difluoro-1-(6-fluoro-3-pyridyl)cyclohexyl]methyl]-6-fluoro-benzamide] | 14 nM |
| CC(C)(O)c1ccc(C2(CNC(=O)c3ccccc3Cl)CCC(F)(F)CC2)cn1 [2-chloro-N-[[4,4-difluoro-1-[6-(1-hydroxy-1-methyl-ethyl)-3-pyridyl]cyclohexyl]methyl]benzamide] | 380 nM |
| N#Cc1ccccc1C(=O)NCC1(c2ccc(C(F)(F)F)nc2)CCC(F)(F)CC1 [2-cyano-N-((4,4-difluoro-1-(6-(trifluoromethyl)pyridin-3-yl)cyclohexyl)methyl)benzamide] | 150 nM |
| O=C(NCC(CC1(C(F)(F)F)CC1)c1ccc(C(F)(F)F)nc1)c1ccccc1F (stereo not drawn) [2-fluoro-N-[3-[1-(trifluoromethyl)cyclopropyl]-2-[6-(trifluoromethyl)-3-pyridyl]propyl]benzamide] | 430 nM |
| O=C(NCC1(c2ccc(Cl)cc2)CCOCC1)c1cccc(Cl)c1F [3-Chloro-N-[4-(4-chloro-phenyl)-tetrahydro-pyran-4-ylmethyl]-2-fluoro-benzamide] | 890 nM |
| Cc1c(Br)cccc1C(=O)NCC1(c2ccc(C(F)(F)F)nc2)CCC(F)(F)CC1 [3-bromo-N-((4,4-difluoro-1-(6-(trifluoromethyl)pyridin-3-yl)cyclohexyl)methyl)-2-methylbenzamide] | 0.71 nM |
| O=C(NCC(CC1CC1)c1ccc(C(F)(F)F)nc1)c1cccc(Cl)c1F (stereo not drawn) [3-chloro-N-(3-cyclopropyl-2-(6-(trifluoromethyl)pyridin-3-yl)propyl)-2-fluorobenzamide] | 660 nM |
| O=C(NCC1(c2ccc(C(F)(F)F)nc2)CCC(F)(F)CC1)c1cccc(Cl)c1F [3-chloro-N-((4,4-difluoro-1-(6-(trifluoromethyl)pyridin-3-yl)cyclohexyl)methyl)-2-fluorobenzamide] | 3.2 nM |

| SMILES | IC50 |
| --- | --- |
| O=C(NCC1(c2ccc(F)nc2)CCC(F)(F)CC1)c1cccc(Cl)c1F [3-chloro-N-((4,4-difluoro-1-(6-fluoropyridin-3-yl)cyclohexyl)methyl)-2-fluorobenzamide] | 11 nM |
| Cc1c(C#N)cccc1C(=O)NCC1(c2ccc(C(F)(F)F)nc2)CCC(F)(F)CC1 [3-cyano-N-((4,4-difluoro-1-(6-(trifluoromethyl)pyridin-3-yl)cyclohexyl)methyl)-2-methylbenzamide] | 45 nM |
| O=C(NCC1(c2ccc(Cl)cc2)CCOCC1)c1cc(Br)ccc1Cl [5-Bromo-2-chloro-N-[4-(4-chloro-phenyl)-tetrahydro-pyran-4-ylmethyl]-benzamide] | 130 nM |
| CC(NC(=O)c1cccc(Cl)c1Cl)C1(c2ccc(Br)nc2)CCC(F)(F)CC1 (stereo not drawn) [N-(1-(1-(6-bromopyridin-3-yl)-4,4-difluorocyclohexyl)ethyl)-2,3-dichlorobenzamide] | 43 nM |
| CS(=O)(=O)c1ccccc1C(=O)NCC1(c2ccc(C(F)(F)F)nc2)CCC(F)(F)CC1 [N-((4,4-difluoro-1-(6-(trifluoromethyl)pyridin-3-yl)cyclohexyl)methyl)-2-(methylsulfonyl)benzamide] | 480 nM |
| Cc1ccc(C(F)(F)F)cc1C(=O)NCC1(c2ccc(C(F)(F)F)nc2)CCC(F)(F)CC1 [N-((4,4-difluoro-1-(6-(trifluoromethyl)pyridin-3-yl)cyclohexyl)methyl)-2-methyl-5-(trifluoromethyl)benzamide] | 39 nM |
| Cc1ccccc1C(=O)NCC1(c2ccc(C(F)(F)F)nc2)CCC(F)(F)CC1 [N-((4,4-difluoro-1-(6-(trifluoromethyl)pyridin-3-yl)cyclohexyl)methyl)-2-methylbenzamide] | 2.6 nM |
| Cc1c(F)cccc1C(=O)NCC1(c2ccc(C(F)(F)F)nc2)CCC(F)(F)CC1 [N-((4,4-difluoro-1-(6-(trifluoromethyl)pyridin-3-yl)cyclohexyl)methyl)-3-fluoro-2-methylbenzamide] | 4 nM |
| COc1cccc(C(=O)NCC2(c3ccc(C(F)(F)F)nc3)CCC(F)(F)CC2)c1C [N-((4,4-difluoro-1-(6-(trifluoromethyl)pyridin-3-yl)cyclohexyl)methyl)-3-methoxy-2-methylbenzamide] | 1.6 nM |
| Cc1ccc(F)cc1C(=O)NCC1(c2ccc(C(F)(F)F)nc2)CCC(F)(F)CC1 [N-((4,4-difluoro-1-(6-(trifluoromethyl)pyridin-3-yl)cyclohexyl)methyl)-5-fluoro-2-methylbenzamide] | 9.1 nM |
| O=C(NCC1(c2ccc(F)nc2)CCC(F)(F)CC1)c1cccc(F)c1F [N-((4,4-difluoro-1-(6-fluoropyridin-3-yl)cyclohexyl)methyl)-2,3-difluorobenzamide] | 290 nM |
| O=C(NCC1(c2ccc(F)nc2)CCC(F)(F)CC1)c1cc(F)ccc1F [N-((4,4-difluoro-1-(6-fluoropyridin-3-yl)cyclohexyl)methyl)-2,5-difluorobenzamide] | 1500 nM |
| Cc1cccc(C(=O)NCC2(c3ccc(F)nc3)CCC(F)(F)CC2)c1F [N-((4,4-difluoro-1-(6-fluoropyridin-3-yl)cyclohexyl)methyl)-2-fluoro-3-methylbenzamide] | 78 nM |
| COc1ccc(F)c(C(=O)NCC2(c3ccc(F)nc3)CCC(F)(F)CC2)c1 [N-((4,4-difluoro-1-(6-fluoropyridin-3-yl)cyclohexyl)methyl)-2-fluoro-5-methoxybenzamide] | 65 nM |
| O=C(NCC1(c2ccc(F)nc2)CCC(F)(F)CC1)c1ccccc1F [N-((4,4-difluoro-1-(6-fluoropyridin-3-yl)cyclohexyl)methyl)-] [N-((4,4-difluoro-1-(6-fluoropyridin-3-yl)cyclohexyl)methyl)-2-fluorobenzamide] | 190 nM |
| COc1ccc(C2(CNC(=O)c3cccc(C)c3C)CCCC2)cc1 [N-[1-(4-Methoxy-phenyl)-cyclopentylmethyl]-2,3-dimethyl-benzamide] | 600 nM |
| COc1ccc(C2(CNC(=O)c3ccccc3C)CCCC2)cc1 [N-[1-(4-Methoxy-phenyl)-cyclopentylmethyl]-2-methyl-benzamide] | 1400 nM |
| O=C(NCC(CC1(C(F)(F)F)CC1)c1ccc(C2CC2)nc1)c1ccccc1F (stereo not drawn) [N-[2-(6-cyclopropyl-3-pyridyl)-3-[1-(trifluoromethyl)cyclopropyl]propyl]-2-fluoro-benzamide] | 1700 nM |
| O=C(NCC1(c2ccc(F)nc2)CCC(F)(F)CC1)c1ccccc1F [N-[4,4-Difluoro-1-(6-fluoro-pyridin-3-yl)-cyclohexylmethyl]-] [N-[4,4-Difluoro-1-(6-fluoro-pyridin-3-yl)-cyclohexylmethyl]-2-fluoro-benzamide] | 14 nM |
| Cc1ccccc1C(=O)NCC1(c2ccc(Cl)cc2)CCN(C)CC1 [N-[4-(4-Chloro-phenyl)-1-methyl-piperidin-4-ylmethyl]-2-methyl-benzamide] | 60 nM |
| O=C(NCC1(c2ccc(Cl)cc2)CCOCC1)c1cc(F)cc(F)c1F [N-[4-(4-Chloro-phenyl)-tetrahydro-pyran-4-ylmethyl]-2,3,5-trifluoro-benzamide] | 3600 nM |
